Key:
[1] = system: human peripheral T lymphocytes; experiment: Cytokine secretion from primary human peripheral T-cells (ELISA); assay type: cell-based; conditions: peptide at 10μM, CD3 and CD28 antibodies, media 48 hours following activation, n = 12
Method: Fig 4 Primary human T-cell activation is inhibited upon HTLV FP treatment. Human peripheral T lymphocytes were isolated from whole blood and activated using CD3 and CD28 antibodies, in the presence of HTLV FP or HTLV Scr at 10μM. Media was collected 48 hours following activation and secretion of IL2, IFN-γ and IL10 was measured by ELISA assay. […] One-way ANOVA was used for statistical analysis. *P<0.05; ***P<0.001; ns, not significant.
Human peripheral T lymphocytes were isolated from whole blood of healthy adult donors by dextran sedimentation and Ficoll (Sigma) gradient separation followed by depletion of B cells using nylon wool column (Unisorb), to which B cells were adsorbed. Cells were incubated in a complete RPMI growth medium (500 ml RPMI Ca/Mg + heat inactivated FCS (10% final) + 5 ml 200 mM L-Glu (2 mM final) +5 ml […] Na pyruvate (1 mM final) + 5 ml Pen Strep antibiotics) for more than 2 h, and then non-adherent cells were harvested and transferred to a new plate, resulting in ~90% CD3+ T lymphocytes. Cells were then used for in vitro assay, in which […] were plated per well in a 96-well plate and activated using CD3 and CD28 antibodies.
Human peripheral T lymphocytes were isolated from whole blood of healthy donors and were incubated in a complete RPMI growth medium (500 ml RPMI Ca/Mg + heat inactivated FCS (10% final) + 5 ml 200 mM L-Glu (2 mM final) +5 ml […] Na pyruvate (1 mM final) + 5 ml Pen Strep antibiotics). Cells were activated using CD3 and CD28 antibodies, in the presence of relevant peptides at 10μM. Media was collected 48 hours following activation and secretion of IL2 and IFN-γ was determined according to standard protocols from R&D systems.

[2] = system: MOG35-55-reactive T-cells (spleenocytes harvested at 26 DPI); experiment: Ex-vivo MOG35-55 re-stimulation of spleenocytes from EAE mice; assay type: in vivo, mouse; conditions: mice treated with single dose 1mg/kg
Method: Fig 3 Administration of HTLV FP alleviates MOG35-55-induced EAE. (A-B) MOG35-55–antigen specific T-cells were activated by irradiated MOG35-55 presenting APCs, in the presence of HTLV FP or HTLV Scr at 10μM. (A) The proliferative responses were assessed by H^3-thymidine incorporation assay, and normalized to the proliferation of non-activated T-cells. The data is presented as mean inhibition of proliferation. n = 12. (B) IFN-γ was measured by ELISA assay. n = 12. (C-D) EAE was induced in C57BL/6 female mice that were treated with a single dose of HTLV FP, HTLV Scr or vehicle. […] (C) Direct clinical measurement of EAE phenotype in a 5-point scale with increased disease symptoms correlating with higher score value. The data is presented as mean EAE clinical score. (D) Mice were weighed the day before EAE induction, and the change (as a percentage) in weight was recorded. The data is presented as mean change from the initial weight. One-way ANOVA was used for statistical analysis. ^a HTLV FP ≠ Vehicle; ^b HTLV FP ≠ Vehicle & HTLV Scr; ^c HTLV FP ≠ HTLV Scr. ^a,b,cP<0.05. (E) Spleenocytes were harvested at 26 DPI and stimulated using MOG35-55. The proliferative responses were assessed by H^3-thymidine incorporation assay and normalized to the proliferation of non-activated T-cells. The data is presented as counts per minute (CPM). n = 7. (F-G) Spleenocytes were harvested at 26 DPI and stimulated using MOG35-55. Media was collected 48 hours following activation and secretion of IFN-γ and IL4 was measured by ELISA assay. […] One-way ANOVA was used for statistical analysis. *P<0.05;**P<0.01;***P<0.001; ns, not significant.
We then performed an additional EAE experiment in which mice were treated with a single dose of HTLV FP (1mg/kg), HTLV Scr (1mg/kg) or vehicle. […] As disease manifestation was milder compared to the previous experiment, we were able to monitor animals for a longer period of time. […]

[3] = harvested at 26 DPI, media 48 hours following activation, ELISA, n>8, compared to vehicle and HTLV Scr groups

Sequence: AVPVAVWLVSALAMGAGVAGGITGSMSLASGKS [HTLV FP, gp21 fusion peptide of HTLV-1, MT-2 isolate]
- IFN-γ secretion, human T-cells [1]: significant reduction in IFN-γ and IL2 secretion
- IL2 secretion, human T-cells [1]: significant reduction in IFN-γ and IL2 secretion
- IL10 secretion, human T-cells [1]: elevation in IL10 secretion
- IFN-γ secretion of spleenocytes stimulated with MOG35-55 [2, 3]: significantly lower IFN-γ secretion
- IL4 secretion of spleenocytes stimulated with MOG35-55 [2, 3]: significantly higher IL4 secretion
- T-cell proliferative response of spleenocytes stimulated with MOG35-55 ([2]; spleens harvested at 26 DPI, H3-thymidine incorporation, CPM, n = 7): significantly lower in HTLV FP treated spleenocytes compared to HTLV Scr treated spleenocytes

— publication PMC5955599, “The HTLV-1 gp21 fusion peptide inhibits antigen specific T-cell activation in-vitro and in mice” (PLoS Pathogens, 2018)
